Measured values published in ChEMBL document CHEMBL4138192, “Design, synthesis and evaluation of novel dihydrostilbene derivatives as potential anti-melanogenic skin-protecting agents” (Eur J Med Chem, 2018).
Calls of active or inactive are those of the source. The rule behind the calls is not given here.

What was measured:
[1] = target: T1, Tyrosinase (Homo sapiens) (UniProt P14679); assay: Inhibition of tyrosinase in human A375 cells assessed as effect on alpha-MSH-induced melanin formation at 25 uM after 24 hrs relative to control; assay type: cell-based; set-up: scale not given: the % may be the effect or the level left
T1 sequence (whole entry): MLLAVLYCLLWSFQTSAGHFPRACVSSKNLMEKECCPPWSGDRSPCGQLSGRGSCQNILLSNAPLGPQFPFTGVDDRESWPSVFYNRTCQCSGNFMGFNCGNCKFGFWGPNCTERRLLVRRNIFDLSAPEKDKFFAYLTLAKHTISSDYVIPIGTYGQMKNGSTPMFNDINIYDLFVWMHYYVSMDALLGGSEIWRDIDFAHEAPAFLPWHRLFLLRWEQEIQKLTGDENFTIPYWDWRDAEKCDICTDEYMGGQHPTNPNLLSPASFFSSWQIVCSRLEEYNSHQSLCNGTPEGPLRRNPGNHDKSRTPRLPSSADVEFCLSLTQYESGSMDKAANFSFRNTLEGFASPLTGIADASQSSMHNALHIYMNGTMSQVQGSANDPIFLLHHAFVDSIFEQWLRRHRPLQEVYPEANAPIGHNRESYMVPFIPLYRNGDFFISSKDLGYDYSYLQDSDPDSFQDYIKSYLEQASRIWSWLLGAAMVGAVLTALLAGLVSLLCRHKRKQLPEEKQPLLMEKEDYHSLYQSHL

A-375 [2] = assay: Inhibition of alpha-MSH-induced TRP-1 expression in human A375 cells at 25 uM after 24 hrs by Western blot method; assay type: functional, cell-based
[3] = target: T2, Tyrosinase (Mus musculus) (UniProt P11344); assay: Inhibition of tyrosinase in mouse B16 cells assessed as effect on alpha-MSH-induced melanin formation at 25 uM after 24 hrs relative to control; assay type: cell-based; set-up: scale not given: the % may be the effect or the level left
T2 sequence (whole entry): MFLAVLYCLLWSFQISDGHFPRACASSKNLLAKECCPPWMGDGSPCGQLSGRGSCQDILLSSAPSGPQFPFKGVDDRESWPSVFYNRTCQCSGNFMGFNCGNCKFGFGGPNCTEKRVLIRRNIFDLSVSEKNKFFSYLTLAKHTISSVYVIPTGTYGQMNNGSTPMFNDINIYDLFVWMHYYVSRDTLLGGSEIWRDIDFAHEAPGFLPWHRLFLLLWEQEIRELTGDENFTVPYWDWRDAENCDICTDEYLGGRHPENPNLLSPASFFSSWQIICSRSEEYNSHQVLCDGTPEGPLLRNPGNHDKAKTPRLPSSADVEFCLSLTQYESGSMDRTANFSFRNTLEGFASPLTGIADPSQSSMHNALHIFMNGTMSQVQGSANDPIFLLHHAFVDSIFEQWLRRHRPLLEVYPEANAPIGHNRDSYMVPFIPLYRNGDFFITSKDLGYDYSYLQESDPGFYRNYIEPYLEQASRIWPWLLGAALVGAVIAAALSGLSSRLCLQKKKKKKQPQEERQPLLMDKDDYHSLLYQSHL

[4] = Growth inhibition of human A375 cells at 25 uM after 48 hrs by SRB assay relative to control; assay type: cell-based, A-375; conditions: read-out: GI
A-375 [5] = assay: Inhibition of alpha-MSH-induced TRP-2 expression in human A375 cells at 25 uM after 24 hrs by Western blot method; assay type: functional, cell-based
[6] = Growth inhibition of mouse B16 cells at 25 uM after 48 hrs by SRB assay relative to control; assay type: cell-based; conditions: read-out: GI
[7] = target: T2, Tyrosinase (Mus musculus); assay: Inhibition of tyrosinase in mouse B16 cells at 25 uM using L-DOPA as substrate after 24 hrs by spectrophotometric method; assay type: cell-based
[8] = target: T1, Tyrosinase (Homo sapiens); assay: Inhibition of tyrosinase in human A375 cells at 25 uM using L-DOPA as substrate after 24 hrs by spectrophotometric method; assay type: cell-based
[9] = Antioxidant activity assessed as ABTS radical scavenging activity at 25 uM after 15 mins; assay type: functional; set-up: reference not given here
A-375 [10] = assay: Inhibition of alpha-MSH-induced reactive oxygen species generation in human A375 cells at 25 uM after 4 hrs by DCFDA staining-based fluorescence assay; assay type: functional, cell-based

Row | SMILES | Activity [1] [%] | inhibition (A-375 [2]) | Activity [3] [%] | inhibition at 48 h, 25 µM [4] [%] | inhibition (A-375 [5]) | inhibition at 48 h, 25 µM [6] [%] | inhibition [7] | inhibition [8] | Activity [9] [mg.equiv] | inhibition (A-375 [10])
1 | O=C1O[C@H]([C@@H](O)CO)C(O)=C1O [ASCORBIC ACID] | 75 | Active | 83.7 | 8.63 | Active | 4.94 | – | – | – | –
2 | O=C(Oc1ccc(CCc2cc(OC(=O)C3CCCC3)cc(OC(=O)C3CCCC3)c2)cc1)C1CCCC1 | 97.2 | – | 95.9 | 14.3 | – | 9.69 | – | – | – | –
3 | O=C(OCc1ccccc1)Oc1ccc(CCc2cc(OC(=O)OCc3ccccc3)cc(OC(=O)OCc3ccccc3)c2)cc1 | 92.4 | – | 89.9 | 6.35 | – | 5.12 | – | – | – | –
4 | O=C(Oc1ccc(CCc2cc(OC(=O)c3ccc(Cl)cc3)cc(OC(=O)c3ccc(Cl)cc3)c2)cc1)c1ccc(Cl)cc1 | 93.4 | – | 99.2 | 21.5 | – | 5.26 | – | – | – | –
5 | CCCC(=O)Oc1ccc(CCc2cc(OC(=O)CCC)cc(OC(=O)CCC)c2)cc1 | 98.9 | – | 96.2 | 17.9 | – | 4.81 | inactive | Active | 94.3 | –
6 | Oc1ccc(CCc2cc(O)cc(O)c2)cc1 [DIHYDRORESVERATROL] | 78 | Active | 78.3 | 6.42 | Active | 5.2 | – | – | 4970 | Active
7 | COc1ccc(C(=O)Oc2ccc(CCc3cc(OC(=O)c4ccc(OC)cc4)cc(OC(=O)c4ccc(OC)cc4)c3)cc2)cc1 | 104 | – | 94.7 | 6.05 | – | 5.12 | – | – | – | –
8 | Oc1ccc(/C=C/c2cc(O)cc(O)c2)cc1 [RESVERATROL] | 80.4 | Active | 80.2 | 9.79 | Active | 13.1 | – | – | – | Active
9 | CCCOc1ccc(CCc2cc(OCCC)cc(OCCC)c2)cc1 | 85.1 | – | 94.7 | 3.36 | – | 1.34 | – | – | 30.2 | –
10 | CC(C)(C)C(=O)Oc1ccc(CCc2cc(OC(=O)C(C)(C)C)cc(OC(=O)C(C)(C)C)c2)cc1 | 94.6 | – | 93 | 9.53 | – | 6.91 | – | – | – | –
11 | O=C(Oc1ccc(CCc2cc(OC(=O)c3ccccc3)cc(OC(=O)c3ccccc3)c2)cc1)c1ccccc1 | 85.2 | – | 87 | 4.55 | – | 4.92 | – | – | – | –
12 | C=CC(=O)Oc1ccc(CCc2cc(OC(=O)C=C)cc(OC(=O)C=C)c2)cc1 | 50.5 | Active | 76 | 15.6 | Active | 13.9 | Active | Active | 15.9 | Active
13 | C=CCOc1ccc(CCc2cc(OCC=C)cc(OCC=C)c2)cc1 | 88.1 | – | 96.5 | 6.83 | – | 1.31 | inactive | Active | 119 | –
